Laboratory results taken from patent US11076595B2, “1-(n,n-disubstituted carbamoyl) 4-(substituted sulfonyl)triazolin-5-one derivative, 4-(n,n-disubstituted carbamoyl) 1-(substituted sulfonyl)triazolin-5-one derivative, and herbicide containing said derivative as active ingredient” (HOKKO CHEMICAL INDUSTRY CO., LTD., priority 2017, dated 2021).

Legend:
Type in all cases: in vivo
Echinochloa crus-galli [1] = assay: Test Example 11: herbicidal effect test by soil treatment in paddy field; conditions: 120 g/10a active ingredient, 14 days after treatment
Outline: (§1)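 Pre-emergence paddy test, 120 g a.i./10 are, emulsifiable concentrate diluted in water and added dropwise to ~3 cm flood water right after sowing (30 seeds/species, 0–1 cm depth, fertilized puddled soil). Greenhouse; 2 replicates; dry-weight suppression (%) vs untreated, day 14.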

Lindernia pyxidaria [2] = assay: as above; conditions: 120 g/10a active ingredient, 14 days after treatment
Outline: as §1

Monochoria vaginalis [3] = assay: as above; conditions: 120 g/10a active ingredient, 14 days after treatment
Outline: as §1

Scirpus juncoides [4] = assay: as above; conditions: 120 g/10a active ingredient, 14 days after treatment
Outline: as §1

Echinochloa crus-galli [5] = assay: Test Example 12: herbicidal effect test by treatment during growing period in paddy field; conditions: 120 g/10a; treatment seven days after sowing in flooded paddy pot; assessed 14 days after treatment
Outline: (§2)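 Seeds (30 per species) are sown shallowly into fertilized, puddled paddy soil kept under ~3 cm of water in a greenhouse. One week later, compound formulated as an emulsifiable concentrate is applied dropwise to the water at 120 g a.i./10 are. After 14 days, dry weights give percent suppression against untreated controls.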

Lindernia pyxidaria [6] = assay: as above; conditions: 120 g/10a; treatment seven days after sowing in flooded paddy pot; assessed 14 days after treatment
Outline: as §2

Monochoria vaginalis [7] = assay: as above; conditions: 120 g/10a; treatment seven days after sowing in flooded paddy pot; assessed 14 days after treatment
Outline: as §2

Scirpus juncoides [8] = assay: as above; conditions: 120 g/10a; treatment seven days after sowing in flooded paddy pot; assessed 14 days after treatment
Outline: as §2

Amaranthus viridis [9] = assay: Test Example 13: herbicidal effect test by soil treatment in upland field; conditions: 120 g/10a, 14 days after treatment
Outline: (§3)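 Pre-emergence soil spray, 1 d post-sowing; emulsifiable concentrate in water, 100 L/10 are, 120 g a.i./10 are. Pots 36 cm^2, alluvial soil, 20 seeds/species in top 1 cm. n=2; read 14 d; suppression % = (1 − treated/untreated mean dry weight) × 100.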

Chenopodium album [10] = assay: as above; conditions: 120 g/10a, 14 days after treatment
Outline: as §3

Echinochloa crus-galli [11] = assay: as above; conditions: 120 g/10a, 14 days after treatment
Outline: as §3

crabgrass [12] = assay: as above; conditions: 120 g/10a, 14 days after treatment
Outline: as §3

Chenopodium album [13] = assay: Test Example 14: herbicidal effect test by foliage treatment in upland field; conditions: 7 days after sowing, 120 g/10a, 14 days after treatment
Outline: (§4)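 Dose: 120 g a.i. per 10 are, sprayed in 100 L water per 10 are onto pots seven days post-sowing in alluvial soil. After 14 days, weed dry weight relative to untreated plots gave suppression rate (%); duplicate plots per concentration.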

crabgrass [14] = assay: as above; conditions: 7 days after sowing, 120 g/10a, 14 days after treatment
Outline: as §4

Amaranthus viridis [15] = assay: as above; conditions: 7 days after sowing, 120 g/10a, 14 days after treatment
Outline: as §4

Echinochloa crus-galli [16] = assay: as above; conditions: 7 days after sowing, 120 g/10a, 14 days after treatment
Outline: as §4

| Compound | Weed suppression rate (%) Echinochloa crus-galli (Echinochloa crus-galli [1]) | Weed suppression rate (%) Lindemia pyxidaria (Lindernia pyxidaria [2]) | Weed suppression rate (%) Monochoria vaginalis (Monochoria vaginalis [3]) | Weed suppression rate (%) Scirpus juncoides (Scirpus juncoides [4]) | Weed suppression rate (%) Echinochloa crus-galli (Echinochloa crus-galli [5]) | Weed suppression rate (%) Lindemia pyxidaria (Lindernia pyxidaria [6]) | Weed suppression rate (%) Monochoria vaginalis (Monochoria vaginalis [7]) | Weed suppression rate (%) Scirpus juncoides (Scirpus juncoides [8]) | herbicidal effect, Amaranthus viridis (Amaranthus viridis [9]) | herbicidal effect, Chenopodium album (Chenopodium album [10]) | herbicidal effect, Echinochloa crus-galli (Echinochloa crus-galli [11]) | herbicidal effect, Crabgrass (crabgrass [12]) | herbicidal effect, Chenopodium album (Chenopodium album [13]) | herbicidal effect, Crabgrass (crabgrass [14]) | herbicidal effect, Amaranthus viridis (Amaranthus viridis [15]) | herbicidal effect, Echinochloa crus-galli (Echinochloa crus-galli [16]) |
| --- | --- | --- | --- | --- | --- | --- | --- | --- | --- | --- | --- | --- | --- | --- | --- | --- |
| CC(C)N(C(=O)n1cnn(S(=O)(=O)C2CCCCC2)c1=O)c1ccc(F)cc1F [Compound 11-294] | 100% | 100% | 100% | 100% | 100% | 80% | 90% | 90% | 90% | 80% | 80% | 90% | 80% | 90% | 90% | 80% |
| CC(C)N(C(=O)n1cnn(S(=O)(=O)C(C)C)c1=O)c1cccc(F)c1F [Compound 11-58] | 100% | 100% | 100% | 100% | 100% | 100% | 100% | 100% | 70% | 70% | 100% | 90% | 70% | 100% | 30% | 90% |
| CC(C)N(C(=O)n1cnn(S(=O)(=O)C2CC2)c1=O)c1ccc(Cl)nc1Cl [Compound 11-238] | 90% | 100% | 80% | 90% | 100% | 80% | 90% | 90% | 90% | 80% | 80% | 90% | 80% | 90% | 90% | 80% |
| CC(C)N(C(=O)n1cnn(S(=O)(=O)N(C)C)c1=O)c1ccc(Cl)cn1 [Compound 11-1090] | 100% | 100% | 60% | 90% | 100% | 90% | 60% | 90% | 50% | 50% | 80% | 90% | 40% | 90% | 40% | 90% |
| CCC(C)S(=O)(=O)n1ncn(C(=O)N(c2ccc(F)cc2F)C(C)C)c1=O (stereo not shown) [Compound 11-93] | 90% | 90% | 90% | 90% | 90% | 80% | 90% | 90% | 90% | 80% | 80% | 90% | 80% | 90% | 90% | 80% |
| CC(C)N(C(=O)n1cnn(S(C)(=O)=O)c1=O)c1c(F)cccc1F [Compound 11-14] | 100% | 100% | 80% | 90% | 100% | 80% | 80% | 100% | 70% | 60% | 100% | 100% | 30% | 100% | 30% | 100% |
| CC(C)N(C(=O)n1cnn(S(=O)(=O)c2ccccc2Cl)c1=O)c1ccccc1 [Compound 11-501] | 100% | 90% | 80% | 90% | 100% | 80% | 90% | 90% | 0% | 0% | 40% | 90% | 0% | 90% | 0% | 70% |
| CC(C)N(C(=O)n1cnn(S(=O)(=O)C2CCCCC2)c1=O)c1ccccc1 [Compound 11-283] | 100% | 90% | 70% | 90% | 90% | 90% | 90% | 90% | 90% | 80% | 80% | 90% | 80% | 90% | 90% | 80% |
| Cc1cc(C)c(S(=O)(=O)n2ncn(C(=O)N(c3ccc(F)cc3C)C(C)C)c2=O)c(C)c1 [Compound 11-876] | 100% | 100% | 100% | 100% | 100% | 100% | 100% | 100% | 70% | 100% | 100% | 100% | 30% | 100% | 30% | 90% |
| CC(C)N(C(=O)n1cnn(S(=O)(=O)C2CC2)c1=O)c1ccc(Cl)cn1 [Compound 11-233] | 100% | 100% | 90% | 90% | 100% | 90% | 90% | 90% | 80% | 50% | 80% | 90% | 50% | 90% | 40% | 90% |
